{"source": "ChEMBL document CHEMBL1149018", "about": "“Cytotoxic and antitumor activity of vismiones isolated from vismieae” (J Nat Prod, 1986)", "key": {"[1]": {"assay": "Cytotoxicity against human 9KB cells after 3 days", "type": "functional", "conditions": "72 h, read-out: ID50 (the source's name)"}, "P388 [2]": {"tested_on": "P388", "assay": "Cytotoxicity against mouse doxorubicin-resistant P388 cells after 3 days", "type": "functional", "conditions": "P388, 72 h, read-out: ID50 (the source's name)"}, "P388 [3]": {"tested_on": "P388", "assay": "Cytotoxicity against mouse doxorubicin-sensitive P388 cells after 3 days", "type": "functional", "conditions": "P388, 72 h, read-out: ID50 (the source's name)"}, "M5076 [4]": {"tested_on": "M5076", "assay": "Antitumor activity in mouse M5076 cells xenografted in BDF1 mouse at 2.50 mg/kg, ip administered from day 1 to 9 after transplantation", "type": "functional", "conditions": "dose 2.5 mg/kg; route intraperitoneal"}, "B16 [5]": {"tested_on": "B16", "assay": "Antitumor activity in mouse B16 cells xenografted in BDF1 mouse at 1.25 mg/kg, ip administered from day 1 to 5 after transplantation", "type": "functional", "conditions": "route intraperitoneal"}, "M5076 [6]": {"tested_on": "M5076", "assay": "Antitumor activity in mouse M5076 cells xenografted in BDF1 mouse at 0.31 mg/kg, ip administered from day 1 to 9 after transplantation", "type": "functional", "conditions": "route intraperitoneal"}, "M5076 [7]": {"tested_on": "M5076", "assay": "Antitumor activity in mouse M5076 cells xenografted in BDF1 mouse at 0.63 mg/kg, ip administered from day 1 to 9 after transplantation", "type": "functional", "conditions": "route intraperitoneal"}, "B16 [8]": {"tested_on": "B16", "assay": "Antitumor activity in mouse B16 cells xenografted in BDF1 mouse at 2.50 mg/kg, ip administered from day 1 to 5 after transplantation", "type": "functional", "conditions": "dose 2.5 mg/kg; route intraperitoneal"}, "Mus musculus [9]": {"tested_on": "Mus musculus", "assay": "Toxicity in mouse M5076 cells xenografted in BDF1 mouse at 10 mg/kg, ip administered from day 1 to 9 after transplantation", "type": "organism-based", "design": "dose 10 mg/kg, route intraperitoneal", "conditions": "in vivo"}, "Mus musculus [10]": {"tested_on": "Mus musculus", "assay": "Toxicity in mouse B16 cells xenografted in BDF1 mouse at 10 mg/kg, ip administered from day 1 to 5 after transplantation", "type": "organism-based", "design": "dose 10 mg/kg, route intraperitoneal", "conditions": "in vivo"}, "B16 [11]": {"tested_on": "B16", "assay": "Antitumor activity in mouse B16 cells xenografted in BDF1 mouse at 5 mg/kg, ip administered from day 1 to 5 after transplantation", "type": "functional", "conditions": "route intraperitoneal"}, "M5076 [12]": {"tested_on": "M5076", "assay": "Antitumor activity in mouse M5076 cells xenografted in BDF1 mouse at 5 mg/kg, ip administered from day 1 to 9 after transplantation", "type": "functional", "conditions": "route intraperitoneal"}, "M5076 [13]": {"tested_on": "M5076", "assay": "Antitumor activity in mouse M5076 cells xenografted in BDF1 mouse at 1.25 mg/kg, ip administered from day 1 to 9 after transplantation", "type": "functional", "conditions": "route intraperitoneal"}, "B16 [14]": {"tested_on": "B16", "assay": "Antitumor activity in mouse B16 cells xenografted in BDF1 mouse at 0.62 mg/kg, ip administered from day 1 to 5 after transplantation", "type": "functional", "conditions": "route intraperitoneal"}}}
{"compound": "CC(=O)OC1(C)CC(=O)c2c(cc3cc(O)c(C/C=C(\\C)CCC=C(C)C)c(O)c3c2O)C1", "note": "(stereo unspecified) [ACETYLVISMIONE F]", "values": [{"measurement": "IC50", "setting": "[1]", "result": 1, "unit": "µg/mL"}, {"measurement": "IC50", "setting": "P388 [2]", "result": 3, "unit": "µg/mL"}, {"measurement": "IC50", "setting": "P388 [3]", "result": 2.7, "unit": "µg/mL"}]}
{"compound": "CC(C)=CCC/C(C)=C/Cc1c(O)cc2cc3c(c(O)c2c1O)C(=O)CC(C)(O)C3", "note": "(stereo unspecified) [VISMIONE F]", "values": [{"measurement": "IC50", "setting": "[1]", "result": 2.8, "unit": "µg/mL"}, {"measurement": "IC50", "setting": "P388 [2]", "result": 13.5, "unit": "µg/mL"}, {"measurement": "IC50", "setting": "P388 [3]", "result": 2, "unit": "µg/mL"}]}
{"compound": "COc1cc2cc3c(c(O)c2c(O)c1/C=C/C(C)C)C(=O)CC(C)(O)C3", "note": "(stereo unspecified) [DEACETYLVISMIONE A]", "values": [{"measurement": "IC50", "setting": "[1]", "result": 0.7, "unit": "µg/mL"}, {"measurement": "IC50", "setting": "P388 [2]", "result": 0.3, "unit": "µg/mL"}, {"measurement": "IC50", "setting": "P388 [3]", "result": 0.4, "unit": "µg/mL"}]}
{"compound": "CC(=O)OC1(C)CC(=O)c2c(c(C/C=C(\\C)CCC=C(C)C)c3cc(O)cc(O)c3c2O)C1", "note": "(stereo unspecified) [VISMIONE G]", "values": [{"measurement": "IC50", "setting": "[1]", "result": 3.2, "unit": "µg/mL"}, {"measurement": "IC50", "setting": "P388 [2]", "result": 30, "unit": "µg/mL"}, {"measurement": "IC50", "setting": "P388 [3]", "result": 30, "unit": "µg/mL"}]}
{"compound": "COc1cccc2c1C(=O)c1c(O)c3c(c(O)c1C2=O)C[C@@](O)(C(=O)CO)C[C@@H]3O[C@H]1C[C@H](N)[C@H](O)[C@H](C)O1", "note": "[DOXORUBICIN]", "values": [{"measurement": "IC50", "setting": "[1]", "result": 0.2, "unit": "µg/mL"}, {"measurement": "IC50", "setting": "P388 [2]", "result": 0.5, "unit": "µg/mL"}, {"measurement": "IC50", "setting": "P388 [3]", "result": 0.0055, "unit": "µg/mL"}]}
{"compound": "CC(=O)OC1(C)CC(=O)c2c(cc3cc(O)c(CC=C(C)C)c(O)c3c2O)C1", "note": "(stereo unspecified) [VISMIONE C]", "values": [{"measurement": "IC50", "setting": "[1]", "result": 2.1, "unit": "µg/mL"}]}
{"compound": "CC(=O)OC1(C)CC(=O)c2c(cc3cc(OC/C=C(\\C)CCC=C(C)C)cc(O)c3c2O)C1", "note": "(stereo unspecified) [ACETYLVISMIONE D]", "values": [{"measurement": "IC50", "setting": "[1]", "result": 5, "unit": "µg/mL"}, {"measurement": "IC50", "setting": "P388 [3]", "result": 1.8, "unit": "µg/mL"}]}
{"compound": "COc1cc2cc3c(c(O)c2c(O)c1/C=C/C(C)C)C(=O)CC(C)(OC(C)=O)C3", "note": "(stereo unspecified) [VISMIONE A]", "values": [{"measurement": "T/C", "setting": "M5076 [4]", "result": 140, "unit": "%"}, {"measurement": "T/C", "setting": "B16 [5]", "result": 112, "unit": "%"}, {"measurement": "T/C", "setting": "M5076 [6]", "result": 111, "unit": "%"}, {"measurement": "T/C", "setting": "M5076 [7]", "result": 115, "unit": "%"}, {"measurement": "T/C", "setting": "B16 [8]", "result": 115, "unit": "%"}, {"measurement": "T/C", "setting": "Mus musculus [9]", "result": "Toxic"}, {"measurement": "IC50", "setting": "[1]", "result": 0.25, "unit": "µg/mL"}, {"measurement": "T/C", "setting": "Mus musculus [10]", "result": "Toxic"}, {"measurement": "T/C", "setting": "B16 [11]", "result": 148, "unit": "%"}, {"measurement": "T/C", "setting": "M5076 [12]", "result": 145, "unit": "%"}, {"measurement": "IC50", "setting": "P388 [2]", "result": 1.1, "unit": "µg/mL"}, {"measurement": "T/C", "setting": "M5076 [13]", "result": 119, "unit": "%"}, {"measurement": "T/C", "setting": "B16 [14]", "result": 98, "unit": "%"}, {"measurement": "IC50", "setting": "P388 [3]", "result": 0.45, "unit": "µg/mL"}]}
{"compound": "CC(C)=CCC/C(C)=C/COc1cc(O)c2c(O)c3c(cc2c1)CC(C)(O)CC3=O", "note": "(stereo unspecified) [VISMIONE D]", "values": [{"measurement": "IC50", "setting": "[1]", "result": 14, "unit": "µg/mL"}, {"measurement": "IC50", "setting": "P388 [2]", "result": 18, "unit": "µg/mL"}, {"measurement": "IC50", "setting": "P388 [3]", "result": 14, "unit": "µg/mL"}]}
{"compound": "COc1cc2cc3c(c(O)c2c2c1C=CC(C)(C)O2)C(=O)CC(C)(O)C3", "note": "(stereo unspecified) [VISMIONE B]", "values": [{"measurement": "IC50", "setting": "[1]", "result": 10, "unit": "µg/mL"}, {"measurement": "IC50", "setting": "P388 [2]", "result": 3, "unit": "µg/mL"}, {"measurement": "IC50", "setting": "P388 [3]", "result": 10, "unit": "µg/mL"}]}
{"compound": "COc1cc2cc3c(c(O)c2c2c1C=CC(C)(C)O2)C(=O)CC(C)(OC(C)=O)C3", "note": "(stereo unspecified) [ACETYLVISMIONE B]", "values": [{"measurement": "IC50", "setting": "[1]", "result": 42, "unit": "µg/mL"}, {"measurement": "IC50", "setting": "P388 [2]", "result": 2, "unit": "µg/mL"}, {"measurement": "IC50", "setting": "P388 [3]", "result": 5, "unit": "µg/mL"}]}
